Test system: Cells expressing Notch (ALL-SIL, DND-41, HPB-ALL or TALL-1)
Test: Assay for Cell Cycle Arrest
Type: cell-based
Conditions: concentrations up to 10 μM, incubation typically 4-8 days, in comparison to untreated controls
Protocol: Cells expressing Notch (ALL-SIL, DND-41, HPB-ALL or TALL-1) (Weng et al, Science, 306 (2004), 269-71) were incubated in the presence or absence of a compound of the instant invention (e.g. the compound of Examples 2 and 7 below) at concentrations up to 10 μM. At the end of the incubation (typically 4-8 days), the cells were collected, fixed in 70% ethanol on ice for >2 hours, washed, then labelled for 15 min at 37° C. with propidium iodide (0.2 mg/ml) (PI) in the presence of 0.1% Triton X100 and 0.2 mg/ml RNase and subjected to FACS analysis.

## CC[C@@H]1C[C@H]2C[C@@](c3cc(F)ccc3F)(S(=O)(=O)c3ccc(C(F)(F)F)cc3)CC[C@H]2NS1(=O)=O [Example 2, (3R,4aS,6S,8aR)-6-(2,5-difluorophenyl)-3-ethyl-6-{[4-(trifluoromethyl)phenyl]sulfonyl}octahydro-1H-2,1-benzothiazine 2,2-dioxide]
  cell cycle populations by FACS (propidium iodide): severe loss of G2- and S-phase populations
